For ten compounds, GI50 and TGI results are on record in PubChem BioAssay (NCI).

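Test compounds were applied to cells in 96-well plates for 48 hours at 5 doses. Here, GI50 denotes the concentration required for 50% inhibition of growth. Definition used: TGI = concentration required for complete inhibition of growth.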

Common to all, as to experiment: NCI-60 cell line screen, 48 h
The subject of assay [1] is ACHN renal.
Assay [2] concerns EKVX NSCLC.
The subject of assay [3] is HCC-2998 colon.
Assay [4] concerns K-562 leukemia.
Assay [5] concerns KM12 colon.
Assay [6] deals with NCI-H460 lung.
In assay [7] the test system is NCI-H522 lung.
Assay [8] has as its system SN12C renal.
Assay [9] deals with UACC-62 melanoma.
Assay [10] relates to COLO 205 colon.

As for `COc1ccc(Cn2cc3c(c2-c2cc(OC)c(OC)c(OC)c2)CCc2cnoc2-3)cc1`, the GI50 in assay [1] was 0.849 µM; in assay [2], 0.397 µM; in assay [3], 0.557 µM; in assay [4], 0.111 µM; in assay [5] it was 0.281 µM; in assay [6], 0.332 µM. The GI50 in [7] was 0.107 µM; in assay [8], 0.715 µM; in [9], 0.342 µM. The TGI was > 100 µM in assay [1]; > 100 µM in assay [2]; > 100 µM in assay [3]; > 32.3 µM in assay [4]; > 24.1 µM in assay [5]; 1.88 µM in [6]. Further, the TGI in assay [7] is 1.17 µM; in assay [8] it was > 100 µM; in assay [9], > 23 µM.
`CCSc1ccc(C2C(Br)C(=O)N2c2cc(OC)c(OC)c(OC)c2)cc1` (stereo not given): the GI50 in [10] was 0.23 µM; in [2], 0.639 µM; in assay [3] it was 0.673 µM; in [4] it was 0.0545 µM; in assay [5] it was 0.202 µM; in assay [6] it was 0.539 µM. In addition, the figures for the GI50 in assay [7], in [8] and in assay [9] were 0.158 µM, 0.925 µM and 0.0973 µM, respectively. In addition, the TGI was 0.823 µM in assay [10]; > 100 µM in assay [2]; 29.1 µM in assay [3]; > 100 µM in assay [4]; > 100 µM in assay [5]; 14.2 µM in assay [6]. Besides, the TGI worked out at 4.19 µM in assay [7], 21 µM in [8] and 30 µM in assay [9].
`O=Nc1c(-c2c(O)[nH]c3ccc(Br)cc23)[nH]c2ccccc12`: the GI50 in assay [1] is 2.25 µM; in [10], 2.82 µM; in [2] it was 3 µM; in [4], 2 µM; in [5], 1.14 µM; in [6] it was 2.4 µM. Moreover, the figures for the GI50 in assay [7], in assay [8] and in assay [9] were 3.35 µM, 4.09 µM and 4.96 µM, respectively. Besides, the TGI turned out to be 7.69 µM in assay [1]; 13.9 µM in [10]; 15.5 µM in assay [2]; 4.87 µM in assay [4]; 5.2 µM in assay [5]; 5.99 µM in assay [6]. Besides, the TGI in [7] was 47.6 µM; in assay [8], > 100 µM; in assay [9] it was 15.1 µM.
`CC(=O)N/C(=C\c1ccc(Cc2nc3c([nH]2)C(=O)c2ccccc2C3=O)cc1)c1nc2c([nH]1)C(=O)c1ccccc1C2=O`: the TGI in [1], in [10], in [2], in [3], in assay [4] and in assay [5] was > 100 µM throughout. In addition, the TGI in assay [6], in [7] and in [8] was > 100 µM in each case.
Turning to `O=NN(CCCl)C(=O)NC1CCC(CC2CCC(NC(=O)N(CCCl)N=O)CC2)CC1` (stereo not given), the TGI in [1] was > 100 µM; in assay [10], > 88.1 µM; in assay [2] it was > 100 µM; in assay [3] it was > 100 µM; in assay [4], > 100 µM; in assay [5], > 100 µM. In addition, the TGI in assay [6] is > 100 µM; in [7], 48.3 µM; in [8], > 73.5 µM.
For the compound `CC(C)=CC(=O)Cc1nc2ccc([N+](=O)[O-])cc2[nH]c1=O`, the TGI in assay [1], in assay [10], in assay [2], in [4], in assay [6] and in assay [7] was > 100 µM each time. In addition, the TGI in assay [8] and in assay [9] was > 100 µM throughout.
For `Cc1ccc([C@]2(C)CC[C@H](C)/C2=C\Br)c(O)c1`, the GI50 is 7.5 µM in [1]; 2.49 µM in assay [10]; 5.74 µM in assay [2]; 3.3 µM in assay [4]; 3.55 µM in [5]; 4.23 µM in [6]. Besides, the GI50 in assay [7] was 3.24 µM; in assay [8], 4.05 µM; in assay [9] it was 3.71 µM. Further, the TGI in assay [1] is 26.1 µM; in assay [10], 6.14 µM; in assay [2] it was 17.7 µM; in [4], 11.1 µM; in assay [5] it was 13.7 µM; in assay [6] it was 16.5 µM. The figures for the TGI in [7], in assay [8] and in assay [9] were 12 µM, 15.1 µM and 14.1 µM, respectively.
Turning to `Oc1c(CN2CCN(c3ccccc3)CC2)cc(Br)c2cccnc12`, the TGI is > 34.4 µM in assay [1]; > 100 µM in [10]; > 29.3 µM in assay [2]; > 40.8 µM in [4]; > 100 µM in [5]; 36.8 µM in assay [7]. Also, the TGI in assay [8] was > 37.6 µM.
Regarding `O=C(/C=C\c1cccc2ccccc12)c1cccc2ccccc12`, the TGI came to 24.1 µM in assay [1]; 27.6 µM in assay [2]; 28.4 µM in [3]; 18.6 µM in assay [4]; 16.5 µM in assay [5]; 16.1 µM in assay [7]. Moreover, the TGI in assay [8] was > 100 µM; in [9], 27.8 µM. Also, the results for the GI50 in assay [4], in assay [5] and in assay [7] were 2.82 µM, 4.2 µM and 4.46 µM, respectively.
As to `CCN(CC)CCNC(=O)c1cccc2nc3ccccc3nc12`, the TGI was > 100 µM in [1]; > 41.4 µM in assay [10]; > 65.4 µM in assay [2]; 52 µM in assay [3]; > 100 µM in assay [4]; 45.8 µM in assay [5]. Also, the values for the TGI in assay [7], in assay [8] and in assay [9] were > 100 µM, > 100 µM and 45.9 µM, respectively.
